The record followed here is patent EP3750892A1, “NOVEL 5-CYCLOPROPYL-FURO[3,4-C]PYRIDINE-3,4(1H,5H)-DIONE 1,1' SUBSTITUTED DERIVATIVES AND THEIR USES” (Yerevan State University, priority 2019, dated 2020).

What is called pEC50 is the negative decadic logarithm of the EC50, by convention in mol/L. Read a low pEC50 as a large EC50. Broadly, the EC50 is the midpoint of the concentration-response curve. A high value points to a less potent agent.

Holding throughout (format): cell-based
The test system of assay [1] is cellular response to IFN-γ. Briefly: ISRE-Luc reporter assay: amplification of cellular response to type II IFN. The note with it: HEK-293 ISRE-Luc, compound 80 µM, recombinant IFN-γ. Here is the method:
Reporter system, cell culture and luciferase assay are performed as exposed above. HEK-293 cells with the ISRE-Luc reporter gene were treated with DMSO or compounds of the invention in the absence or presence of recombinant IFN-γ (Figure 4A; Roussel Uclaf or Milteny Biotech, 150 IU/mL).
(§1) The same experiment was performed but using different dilutions ranging from 1/8 to 1/64 of conditioned supernatants from activated PBMCs, instead of recombinant IFN-γ. Human peripheral blood mononuclear cells (PBMC) from one healthy donor were isolated by density centrifugation with Lymphoprep medium (StemCell Technologies) from leucocytes concentrates obtained when plateletpheresis was performed (Etablissement Français du Sang; Paris; France). To activate PBMCs, cells were treated for 24 h with the TLR7/8 ligand R848 at 5 µg/mL (Sigma Aldrich) and supernatants were harvested. R848 is known to induce expression of several cytokines, within which IFN-γ which is found at high levels in PBMC supernatants in comparison with type I IFNs (Table 4). Table 4. Cytokine expression levels in culture supernatants of human PBMC activated with R848.

Assay [2] relates to cellular response to IFN-α. Briefly: ISRE-Luc reporter assay: amplification of cellular response to IFN-α. The note with it: for amplification of cellular response to IFN-α: HEK-293 ISRE-Luc (STING 37 cell line); for amplification of cellular response to IFN-α / pEC50 / EC50: IFN-α 150 IU/mL; for pEC50 / EC50: ISRE-Luc reporter cells, dose-response 0.8 to 150 µM, luciferase after 24 h, pEC50<3.8 = inactive. The method, then: Cells were cultured at 37°C and 5% CO2 in Dulbecco's modified Eagle's Medium (DMEM; Sigma-Aldrich) containing 10% fetal calf serum (FCS), penicillin and streptomycin. Experiments were performed on HEK-293 cells stably transfected with the ISRE-Luciferase reporter gene (ISRE-Luc), with or without NanoLuc as an additional reporter gene (Lucas-Hourani et al., 2013; Hayek et al., 2019).
Reporter cells were incubated with increasing concentrations of candidates DHODH inhibitors diluted in DMSO in the presence or not of recombinant IFN-α (150 IU/mL). Recombinant IFN-α was from Sigma-Aldrich or PBL Assay Science. Luciferase activity was quantified 24 h later.
To confirm that modulation of IFN-α is related to DHDOH inhibition by compounds of the invention, the same experiments were performed by adding either uridine (pyrimidine derivated nucleoside), dihydroorotate (DHO, the substrate od DHODH in pyrimidine de novo biosynthesis pathway) or orotate (the product of ubiquinone-mediated oxidation of DHO catalysed by DHODH) together with compound of the invention. uridine, orotate, and DHO are all from Sigma Aldrich.
Firefly luciferase expression in culture wells was measured using the Bright-Glo (Promega) or Britelite plus reagents (PerkinElmer), according to the manufacturer's recommendations. For each concentration, three independent experiments were performed.
Compounds were tested for their ability to boost cellular response to IFN-α using ISRE-Luc reporter cells.

The subject of assay [3] is HEK-293 cells. As to the kind of experiment: Cell viability / proliferation assay (CellTiter-Glo). Conditions: 24, 48 and 72 h of culture. Here is the method: Cells were treated with DMSO or compounds of the invention at different concentrations, and the number of viable cells was determined using the CellTiter-Glo reagent after 24, 48 and 72 h of culture. Cellular viability was determined by quantification of ATP in culture wells using the CellTiter-Glo assay (Promega).
Two independent experiments were performed. Results were analyzed using one-way analysis of variance (ANOVA) with Bonferroni's post hoc test.

The test system of assay [4] is de novo pyrimidine biosynthesis. As to the kind of experiment: Purine (G/A) and pyrimidine (C/U) quantification by HPLC-coupled spectrophotometry in HEK-293 cells. Conditions: 24 h, 5, 10 or 20 µg/mL. Here is the method:
Cells were cultured at 37°C and 5% CO2 in Dulbecco's modified Eagle's Medium (DMEM; Sigma-Aldrich) containing 10% fetal calf serum (FCS), penicillin and streptomycin. Nucleoside/nucleotide quantification in HEK-293 cells was performed as previously described in by Lucas-Hourani et al. (2017). Briefly, cells were plated in 6-well plates at 1x10^6 cells per well and after 24 h, several concentrations of compounds of the invention (diluted in DMSO) or DMSO alone was added.
One day later, cells were washed with PBS and cellular pellets were deproteinized by adding an equal volume of 6% perchloric acid. After 10 min of incubation on ice and clearing of the extracts by centrifugation (13,000 rpm for 10 min at 4°C), supernatants were supplemented with bidistilled water (V/V) and neutralized by the addition of 2 M Na2CO3. Extracts were analyzed by HPLC onto a C18 Supelco 5-µm (250 by 4.6 mm) column (Sigma) at 45°C using a mobile phase delivered at a flow rate of 1 mL/min. Buffer A contained 10 mM tetrabutylammonium hydroxide, 10 mM KH2PO4, and 0.25% MeOH and was adjusted to pH 6.9 with 1 M HCl. Buffer B contained 5.6 mM tetrabutylammonium hydroxide, 50 mM KH2PO4, and 30% MeOH and was neutralized to pH 7.0 with 1 M NaOH. […] Products were monitored spectrophotometrically at 254 nm with a diode array detector (PDA) and quantified by integration of the peak absorbance area. […]

Assay [5] relates to human PBMC. As to the kind of experiment: Cytokine expression levels in culture supernatants of PBMC activated with R848. Conditions: PBMC + R848 5 µg/mL, 24 h, supernatant. The method, then:
as §1

Take “5'-cyclopropyl-3'H-spiro[cyclohexane-1,1'-furo[3,4-c]pyridine]-3',4(5'H)-dione [Compound 2]”: the “Amplification of response to IFN type II” value in assay [1] is listed as “Amplification of response to IFN type II”. In assay [2], the “amplification of cellular response to IFN-α” value is given as “amplified” and the pEC50 worked out at 4.4. Further, the “reversal of amplification of response to IFN-α by uridine, orotate or DHO” value in assay [2] (compound 80 µM, uridine 125 µM, DHO 3 mM, orotate 3 mM) is reported as “reversed by orotate but not DHO”. Also, the “proliferation of HEK-293 cells (number of viable cells)” value in assay [3] is “prevent cell proliferation”. Also, the “Pyrimidine (U and C) levels” value in assay [4] is recorded as “drop of pyrimidine cellular concentration”.

`CC1(CCc2ccccc2)OC(=O)c2c1ccn(C1CC1)c2=O` (stereo not shown) [Compound 4, 5-cyclopropyl-1-methyl-1-phenethylfuro[3,4-c]pyridine-3,4(1H,5H)-dione]: the EC50 in assay [2] is 6.31 µM.

In the case of `CC1(c2ccccc2)OC(=O)c2c1ccn(C1CC1)c2=O` (stereo not shown) [Compound 3, 5-cyclopropyl-1-methyl-1-phenylfuro[3,4-c]pyridine-3,4(1H,5H)-dione], in assay [2], the “amplification of cellular response to IFN-α” value is recorded as “amplified” and the EC50 was 25.1 µM.

For the compound `CCOCc1nc2c(N)nc3ccccc3c2n1CC(C)(C)O` [Compound R848], in assay [5], the GM-CSF is recorded as 0.043 ng/mL, the IFN-α2 is on record as 0.097 ng/mL, the IFN-β worked out at 0.015 ng/mL and the IFN-γ was determined as 4.2 ng/mL. Also, in assay [5], the IFN-λ1 is recorded as 0.016 ng/mL, the IL-1β was 12 ng/mL, the IL-6 came out at 65 ng/mL and the IL-8 is 214 ng/mL. Also, in assay [5], the IL-10 came out at 0.283 ng/mL, the IL-12p70 was 0.009 ng/mL, the IP10 is 0.028 ng/mL and the TNF-α amounted to 11 ng/mL.

Compound “5'-cyclopropyl-3'H-spiro[cyclopentane-1,1'-furo[3,4-c]pyridine]-3',4(5'H)-dione [Compound 1]” displayed a pEC50 in assay [2] of 4.3.
